Entries after “also recorded” stand apart in the source; their conditions may differ. Where two headings read alike, the source gives them in different places.
Columns and labels:
[1] = test system: zebrafish embryos (wild-type strain OBI/WIK); test: ISV inhibition (angiogenesis) by video subtraction in wildtype zebrafish embryos; assay type: in vivo, zebrafish (D. rerio); details: for IC50: Danio rerio, ± 95% confidence intervals, read-out: IC50 of ISV inhibition
Method: A wild-type adult zebrafish strain (D. rerio, strain OBI/WIK, generation F3), originating from an in-house cross of zebrafish strains UFZ-OBI and WIK, was used for all experiments. The Tg(kdr:EGFP) strain was kindly provided by the University of Jena. Fish were fed twice daily with dry food (SDS-400, Special Diets Services, Essex England) and once daily with Artemia sp. […] Spawning trays were inserted 4–6 h before the end of the light cycle. The following day, spawning was initiated by the onset of light and eggs were collected within 1 h. Exposure in all experiment was ceased at 96 hpf.
(§1) Exposure was conducted in rectangular 96-well microplates (Clear Polystyrene, flat bottom, Uniplate, Whatman, GE Healthcare) covered by a lid with a test volume of 400 µL of exposure media. For each replicate one embryo per well and 16 wells per concentration were assessed. Experiments were performed with at least two replicates on independent days and breeding.
To determine the number of ISVs in the trunk region, high-resolution images of 96 hpf-old zebrafish embryos were recorded using a Leica DM6B-Z microscope (Leica, Wetzlar, Germany) attached to the VAST imaging system, and a camera (Leica DFC9000 sCMOS, objective: HC APO L U-V-I 20x/0.50 WATER UV). A series of 20 images with a frame rate of 20 images per second and a 2 × 2 pixel binning was recorded in autofocus mode for each embryo.
A series of MATLAB scripts (Supplement File ‘Workflow 3.m’ and ‘Workflow 4.m’) was used to convert the image series into a video and to visualize the blood vessel by applying a video subtraction approach (Figure SI1). Briefly, each video frame was subtracted from the average image of the whole image sequence and converted to a binary image by applying a Gaussian blur (σ = 5) and a threshold of 0.025 to obtain optimal contrast in binary images. Subsequently, the sum of all binary images was calculated. Due to movement of the blood cells the subtraction approach removed all parts from the image which were not moving resulting in an image of the blood vessels. This binary image of the blood vessel network in the zebrafish embryo tail was then processed with the FishInspector annotation software (version 1.70). […] The number of ISVs was obtained by application of a KNIME workflow to FishInspector annotation files. Subsequently concentration–response analysis was conducted using a KNIME workflow. The coefficient of variation (CV) of controls was calculated for both the subtraction and the fluorescence-based method by dividing the standard deviation of individual embryos with the control mean: CVControl=SD/Mean.
The assessment of lethality and morphological features was based on the percentage of embryos affected. Therefore, morphological endpoints were dichotomized, i.e. feature metrics were converted to the percentage of embryos deviating from controls. An embryo was considered to deviate when it was outside 1.5-fold of the standard deviation range of the mean of the control group. The control mean was determined by pooling control embryos across all experiments (n = 160) (available at git.ufz.de). For heart rate and angiogenesis (number of ISVs) the analysis was based on normalized values, i.e. for each experiment the values of the treatment were divided by the control value. The experiments were designed to calculate effect concentrations based on modelled curve fits. Different concentrations were used in at least two independent replicates, with means of each replicate based on the exposure of 16 different embryos per concentrations. Effect concentration were only modeled when three conditions were met. […] (2) The Akaike information criterion (AIC) for the log-logistic model was lower than the AIC for a linear model with slope 0 (lower p values for the letter would indicate that there is no trend in the data).

[2] = test system: early life stage zebrafish; details: ref Tal et al. [2014]; read-out: EC50 for decreased ISV length; cited from earlier work
[3] = Lethality of zebrafish embryos at 96 hpf; assay type: in vivo, zebrafish (D. rerio); details: OBI/WIK wild-type, zebrafish, in vivo, other: immersion of embryos in exposure media, 3–96 hpf exposure; ± 95% confidence intervals
Method: as §1, with “Fertilized and normally developed embryos were selected according to Kimmel et al. ([1995]) with a dissection microscope (Olympus SZx7-ILLT) at 1 hpf. Depending on experiment, exposure was started within 2–3 h post-fertilization (16–128 cell stages) or at 24 hpf. Exposure” for “Exposure”
(§2) Concentration–response curves were fitted for lethality, heart rate, morphological features as previously described (Teixidó et al. [2019], [2022]). The assessment of lethality and morphological features was based on the percentage of embryos affected. Therefore, morphological endpoints were dichotomized, i.e. feature metrics were converted to the percentage of embryos deviating from controls. An embryo was considered to deviate when it was outside 1.5-fold of the standard deviation range of the mean of the control group. The control mean was determined by pooling control embryos across all experiments (n = 160) (available at git.ufz.de). For heart rate and angiogenesis (number of ISVs) the analysis was based on normalized values, i.e. for each experiment the values of the treatment were divided by the control value. The experiments were designed to calculate effect concentrations based on modelled curve fits. Different concentrations were used in at least two independent replicates, with means of each replicate based on the exposure of 16 different embryos per concentrations. Effect concentration were only modeled when three conditions were met. (1) The Tukey trend test based on the R package "tukeytrend" (Schaarschmidt et al. [2022]) was deriving a maximum p-value of 0.05. (2) The Akaike information criterion (AIC) for the log-logistic model was lower than the AIC for a linear model with slope 0 (lower p values for the letter would indicate that there is no trend in the data). (3) We calculated effect concentrations only if at least 30% of embryos for that endpoint were affected in at least one exposure concentration of (for normalized data) a reduction or increase by 30% was observed.

[4] = test system: zebrafish embryos (wild-type strain OBI/WIK); test: Lethality of zebrafish embryos at 96 hpf; assay type: in vivo, zebrafish (D. rerio); details: embryos exposed from 24 hpf, compared to exposure from 3 hpf
Method: as §1, with “Fertilized and normally developed embryos were selected according to Kimmel et al. ([1995]) with a dissection microscope (Olympus SZx7-ILLT) at 1 hpf. Depending on experiment, exposure was started within 2–3 h post-fertilization (16–128 cell stages) or at 24 hpf. Exposure” for “Exposure”
as §2

[5] = test system: zebrafish embryos (wild-type strain OBI/WIK); test: Morphological features and heart rate by automated imaging (VAST/FishInspector) at 96 hpf; assay type: in vivo, zebrafish (D. rerio); details: 96 hpf; listed as VPA
Method: Automated imaging of zebrafish developmental phenotypes was conducted with the VAST BioImager (Union Biometrica, Gees, Belgium (Pardo-Martin et al. [2010]; Pulak [2016])) equipped with a large particle sampler (LP sampler, Union Biometrica). Lateral and dorsoventral images were obtained at 10 µm resolution at 96 hpf. Prior to imaging, all embryos were anesthetized by adding 20 µl tricaine solution ([…] tricaine, TRIS 26 mM, pH 7.5 ± 0.1) to each well of the microplate. Images were processed with an amended version (1.70, available via https://codebase.helmholtz.cloud/ufz/tb3-cite/biotox/FishInspector) of the FishInspector imaging software (Teixidó et al. [2019]). The FishInspector software allows to automatically annotate morphological features including body contour, eye, lower mouth tip, pericard, otoliths, notochord, swimbladder, and yolk and to calculate diverse metrics such as feature length, size, curvature indices, or angle between feature-connecting lines. In contrast to the previously published version, FishInspector 1.70 detects morphological features based on a deep learning approach using the Matlab Neural Network Toolbox and Matlab Image Processing Toolbox (Mathworks, Natick, […]). In addition, metric calculation was included into the software, and meta information such as test compound, exposure window or test concentration was associated to each image using a microplate layout file. To facilitate training of the models, two additional programs were generated in Matlab including FishTrainer 0.9 (for training of semantic segmentation models of structural features) and FishClassificator 0.9 (for training of position classes to be used in automated flipping of images) available via same repository as FishInspector software. For image training, image size was adjusted to 450 × 300 pixel to reduce computing time. This resolution was sufficient to detect the selected features (data not shown). For training of the deep learning models, approximately 3000 previously annotated images (Teixidó et al. [2022]) were used. The automated annotations were corrected by the user in the event that they were not adequately detecting visible structures. User-bias was avoided by a blinded assessment of images.
FishInspector provided a JSON file corresponding to each image file containing the coordinates of all features and the applied smoothing factor. All images and videos used for this publication can be found at the BioImage Archive S-BIAD954 (https://www.ebi.ac.uk/biostudies/bioimages/studies/S-BIAD954). For each image, a csv file was generated containing calculated metrics. The software automatically provides a summary table containing metrics r of individual embryos. […] The analyzed file includes endpoint names based on the FishInspector software. […]

SMILES	IC50 ([1]; 3–96 hpf exposure)	IC50 ([1]; 24–96 hpf exposure)	EC50 [2]	LC50 [3]	Mortality (in words) [4]	Effect on ISV formation (in words) ([1]; tested concentration range up to 800 µM, negative control, listed as VPA)	Morphological malformations (in words) [5]
Clc1ccc(Nc2nnc(Cc3ccncc3)c3ccccc23)cc1 [PTK787]	90 ± 40 nM	140 ± 30 nM	170 nM	680 ± 510 nM	no	–	–
CCCC(CCC)C(=O)O [Valproic acid]	–	–	–	–	–	No effect; also recorded: no inhibition of ISVs formation was observed	craniofacial malformations were observed; also recorded: changes in head and jaw structures

— PMC10794345, “Analysis of vascular disruption in zebrafish embryos as an endpoint to predict developmental toxicity” (Archives of Toxicology, 2023)
